Data published in publication PMC7413254 (Nature Communications, 2020).
Where “and” joins values, the source holds several entries; their conditions need not be identical. Equal entries are not always repeated. Where two headings read alike, the source gives them in different places.

What was measured:
PfCRT [1] = assay: Test of solutes as potential co-substrates for influx of VF-6 via PfCRT into the oocyte; assay type: cell-based, Plasmodium falciparum; design: key: X: Compounds that have been tested as potential co-substrates but are not required for influx of VF-6 via PfCRT into the oocyte; settings: X = tested
PfCRT [2] = assay: Influx of VF-6 via PfCRT into the oocyte, solutes tested as potential co-substrates; assay type: cell-based, Plasmodium falciparum; design: key: X: Compounds that have been tested as potential co-substrates but are not required for influx of VF-6 via PfCRT into the oocyte; settings: X marks the solute
non-expressing oocytes [3] = assay: cells; assay type: cell-based, Xenopus laevis; settings: for Uptake of [3H]CQ (% PfCRTDd2 control), cis-inhibition, non-expressing oocytes: SEM
Procedure, shortened: (§1)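 Oocytes expressing PfCRT isoforms, or non-expressing controls, were incubated 1.5 h at 27.5 °C in ND96 buffer pH 5.5 (96 mM NaCl, 2 mM KCl, 1 mM MgCl2, 1.8 mM CaCl2, 10 mM MES, 10 mM Tris-base), measuring uptake from acidic medium into cytosol. Oocytes were washed ice-cold, SDS-lysed and counted by scintillation.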

PfCRT [4] = assay: Potential co-substrates tested for influx of VF-6 via PfCRT into the oocyte; assay type: cell-based, Plasmodium falciparum; design: key: X: Compounds that have been tested as potential co-substrates but are not required for influx of VF-6 via PfCRT into the oocyte
PfCRT^3D7 = PfCRT^3D7 (Plasmodium falciparum, UniProt Q8IBZ9); assay: cell-based; assay type: cell-based; settings: for Uptake of [3H]CQ (% PfCRTDd2 control), cis-inhibition, PfCRT3D7: SEM
Sequence of PfCRT^3D7 (Q8IBZ9 59-398): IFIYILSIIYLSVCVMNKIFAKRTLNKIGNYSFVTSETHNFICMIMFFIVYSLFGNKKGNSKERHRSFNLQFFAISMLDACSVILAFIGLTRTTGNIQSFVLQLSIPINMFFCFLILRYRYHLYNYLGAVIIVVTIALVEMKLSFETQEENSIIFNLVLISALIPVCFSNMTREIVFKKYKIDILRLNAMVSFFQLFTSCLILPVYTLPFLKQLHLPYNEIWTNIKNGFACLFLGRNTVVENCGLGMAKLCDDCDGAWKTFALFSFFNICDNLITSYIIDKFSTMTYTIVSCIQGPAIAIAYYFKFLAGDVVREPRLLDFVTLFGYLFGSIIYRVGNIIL
Excerpt: The orientation of PfCRT in the parasite’s DV membrane, and also in the oocyte plasma membrane, is such that its N- and C-termini extend into the cytosol. The oocytes were suspended in a reaction buffer adjusted to pH 5.5 to mimic the pH of the DV lumen[1],[2]. In this scenario, the transport of a substrate via PfCRT from the acidic extracellular solution into the oocyte cytosol[15] is analogous to the parasite’s PfCRT-mediated efflux of a substrate from the acidic DV and into the cytosol. Unless specified otherwise, this is the direction in which substrate transport was measured in the oocyte assays.
Unless specified otherwise, the transport assays were conducted over 1.5 h at 27.5 °C and the reaction buffer was ND96 (96 mM NaCl, 2 mM KCl, 1 mM MgCl2, 1.8 mM CaCl2, 10 mM MES and 10 mM Tris-base) at pH 5.5.
Ten oocytes were washed twice with the relevant ND96 buffer. […] The assay was terminated by removing the reaction buffer and washing the oocytes with ice-cold ND96 buffer. The oocytes were lysed in 10% (w/v) sodium dodecyl sulfate (SDS) and the radioactivity accumulated within each oocyte was measured with a MicroBeta^2 microplate liquid scintillation analyser (PerkinElmer).
At least four independent experiments were performed (on different days and using oocytes from different frogs), and within each experiment measurements were made from ten oocytes per treatment.

PfNT1 = molecular target: T1, PfNT1 (Plasmodium falciparum, UniProt Q8IDM6); assay: cell-based; assay type: cell-based; settings: SEM
T1 construct: expressed in transfected cells; host or cells: Xenopus laevis oocytes (stage V-VI), cRNA-injected
T1 sequence (Q8IDM6 whole entry): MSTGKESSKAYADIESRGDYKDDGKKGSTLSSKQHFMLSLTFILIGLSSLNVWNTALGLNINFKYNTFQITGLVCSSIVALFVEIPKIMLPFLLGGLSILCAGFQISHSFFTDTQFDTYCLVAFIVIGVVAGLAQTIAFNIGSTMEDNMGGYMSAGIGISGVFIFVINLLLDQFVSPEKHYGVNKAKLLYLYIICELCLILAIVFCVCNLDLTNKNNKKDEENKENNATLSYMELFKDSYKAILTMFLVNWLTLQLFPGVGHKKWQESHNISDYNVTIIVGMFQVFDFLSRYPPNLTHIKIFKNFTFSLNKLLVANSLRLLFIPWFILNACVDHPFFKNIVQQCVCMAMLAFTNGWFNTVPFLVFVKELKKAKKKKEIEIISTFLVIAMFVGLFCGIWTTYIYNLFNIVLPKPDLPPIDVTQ
Procedure, shortened: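 Transport measured in Xenopus oocytes expressing the transporters, 1.5 h at 27.5 °C in ND96 pH 5.5 unless noted. For trans-stimulation, VF-6 injected in 25 nL ND96 at pH 5.0–7.0 or Na^+-free (choline) buffer; intracellular levels based on ~400 nL oocyte volume. Ten oocytes per treatment, ≥4 experiments.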

PfCRT^Dd2 = PfCRT^Dd2 (Plasmodium falciparum, UniProt Q9N623, A220S/I356T/K76T/M74I/N326S/N75E/Q271E/R371I); assay: [3H]CQ uptake into Xenopus oocytes, cis-inhibition by unlabelled solute; assay type: cell-based; settings: for PfCRT-mediated [3H]CQ transport, cis-inhibition (% PfCRTDd2 control): PfCRTDd2 oocytes, background [3H]CQ accumulation subtracted, normalised to oocyte type control; for Uptake of [3H]CQ (% PfCRTDd2 control), cis-inhibition, PfCRTDd2: total [3H]CQ transport, mean ± SEM, SEM
Sequence of PfCRT^Dd2 (Q9N623 whole entry A220S/I356T/K76T/M74I/N326S/N75E/Q271E/R371I): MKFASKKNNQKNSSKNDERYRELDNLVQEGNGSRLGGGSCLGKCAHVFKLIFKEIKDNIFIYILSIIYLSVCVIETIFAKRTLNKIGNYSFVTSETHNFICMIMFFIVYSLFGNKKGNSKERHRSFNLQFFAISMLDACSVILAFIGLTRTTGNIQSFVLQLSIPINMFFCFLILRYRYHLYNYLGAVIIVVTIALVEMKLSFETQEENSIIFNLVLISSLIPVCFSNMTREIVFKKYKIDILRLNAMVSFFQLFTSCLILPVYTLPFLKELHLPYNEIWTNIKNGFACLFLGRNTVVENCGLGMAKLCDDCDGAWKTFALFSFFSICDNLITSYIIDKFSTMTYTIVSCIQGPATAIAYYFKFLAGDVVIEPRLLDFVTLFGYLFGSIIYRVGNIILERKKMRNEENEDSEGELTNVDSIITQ
Procedure, shortened: as §1

PfCRT^Ecu1110 = PfCRT^Ecu1110 (Plasmodium falciparum, UniProt Q9N623, A220S/I356L/K76T/N326D); assay: as above; assay type: cell-based; settings: for Uptake of [3H]CQ (% PfCRTEcu1110 control), cis-inhibition / PfCRT-mediated [3H]CQ transport, cis-inhibition (% PfCRTEcu1110 control): PfCRTEcu1110 oocytes; for Uptake of [3H]CQ (% PfCRTEcu1110 control), cis-inhibition / Uptake of [3H]CQ (% PfCRTDd2 control), cis-inhibition, PfCRTEcu1110: total [3H]CQ transport; for Uptake of [3H]CQ (% PfCRTEcu1110 control), cis-inhibition: normalised to the oocyte type control; for PfCRT-mediated [3H]CQ transport, cis-inhibition (% PfCRTEcu1110 control): background [3H]CQ accumulation subtracted, normalised to oocyte type control; for [3H]CQ transport (% PfCRTEcu1110 control), cis-inhibition, PfCRTEcu1110: PfCRT-mediated component (background subtracted), sheet title says normalised to PfCRTDd2 control; for [3H]CQ transport (% PfCRTEcu1110 control), cis-inhibition, PfCRTEcu1110 / Uptake of [3H]CQ (% PfCRTDd2 control), cis-inhibition, PfCRTEcu1110: mean ± SEM, SEM
Sequence of PfCRT^Ecu1110 (Q9N623 whole entry A220S/I356L/K76T/N326D): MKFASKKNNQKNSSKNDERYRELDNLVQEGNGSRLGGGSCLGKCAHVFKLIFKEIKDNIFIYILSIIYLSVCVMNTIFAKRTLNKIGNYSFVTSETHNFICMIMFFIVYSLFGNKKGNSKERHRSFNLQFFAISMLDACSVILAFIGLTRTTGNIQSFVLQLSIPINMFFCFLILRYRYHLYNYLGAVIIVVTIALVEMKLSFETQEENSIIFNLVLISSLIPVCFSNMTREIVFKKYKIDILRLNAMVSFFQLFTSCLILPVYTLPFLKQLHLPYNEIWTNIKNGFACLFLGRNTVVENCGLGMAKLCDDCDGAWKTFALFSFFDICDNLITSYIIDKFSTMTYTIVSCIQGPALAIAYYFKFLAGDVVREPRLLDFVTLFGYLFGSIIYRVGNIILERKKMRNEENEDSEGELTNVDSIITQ
Procedure, shortened: as §1

non-expressing oocytes [5] = assay type: cell-based, Xenopus laevis; settings: SEM
Procedure, shortened: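 Oocytes (ten per treatment, ≥4 independent frogs/days) were preloaded by injecting VF-6 in 25 nL ND96 at pH 5.0, 5.5, 6.0 or 7.0, or Na^+-free choline buffer, then uptake run 1.5 h, 27.5 °C, ND96 pH 5.5 by default. Internal concentrations assumed ~400 nL oocyte volume.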

[6] = total [3H]CQ transport, [test solute] = 0.5 mM, mean ± SEM
[7] = total [3H]CQ transport, [test solute] = 1 mM, mean ± SEM
[8] = total [3H]CQ transport, [test solute] = 2 mM, mean ± SEM

| SMILES | Tested as potential co-substrate but not required for influx of VF-6 via PfCRT into the oocyte (PfCRT [1]) | Compounds that have been tested as potential co-substrates but are not required for influx of VF-6 via PfCRT into the oocyte (PfCRT [2]) | Tested as potential co-substrate but not required for influx of VF-6 via PfCRT into the oocyte (PfCRT [4]) | Uptake of [3H]CQ (% PfCRTDd2 control), trans-stimulation, PfNT1 (PfNT1) [% PfCRTDd2 control] | PfCRT-mediated [3H]CQ transport, cis-inhibition (% PfCRTDd2 control) (PfCRT^Dd2; [test solute] = 1 mM) | PfCRT-mediated [3H]CQ transport, cis-inhibition (% PfCRTDd2 control) (PfCRT^Dd2; [test solute] = 2 mM) | Uptake of [3H]CQ (% PfCRTDd2 control), cis-inhibition, PfCRTDd2 (PfCRT^Dd2; [test solute] = 0.5 mM) [% PfCRTDd2 control] | Uptake of [3H]CQ (% PfCRTDd2 control), cis-inhibition, PfCRTDd2 (PfCRT^Dd2; [test solute] = 2 mM) [% PfCRTDd2 control] | Uptake of [3H]CQ (% PfCRTEcu1110 control), cis-inhibition (PfCRT^Ecu1110; [test solute] = 0.5 mM) [% PfCRTEcu1110 control] | Uptake of [3H]CQ (% PfCRTEcu1110 control), cis-inhibition (PfCRT^Ecu1110; [test solute] = 1 mM) [% PfCRTEcu1110 control] | PfCRT-mediated [3H]CQ transport, cis-inhibition (% PfCRTEcu1110 control) (PfCRT^Ecu1110; [test solute] = 0.5 mM) | [3H]CQ transport (% PfCRTEcu1110 control), cis-inhibition, PfCRTEcu1110 (PfCRT^Ecu1110; [test solute] = 0.5 mM) [% PfCRTEcu1110 control] | [3H]CQ transport (% PfCRTEcu1110 control), cis-inhibition, PfCRTEcu1110 (PfCRT^Ecu1110; [test solute] = 2 mM) [% PfCRTEcu1110 control] | Uptake of [3H]CQ (% PfCRTDd2 control), cis-inhibition, PfCRTEcu1110 (PfCRT^Ecu1110; [test solute] = 0.5 mM) [% PfCRTDd2 control] | Uptake of [3H]CQ (% PfCRTDd2 control), cis-inhibition, PfCRTEcu1110 (PfCRT^Ecu1110; [test solute] = 1 mM) [% PfCRTDd2 control] | other results |
| --- | --- | --- | --- | --- | --- | --- | --- | --- | --- | --- | --- | --- | --- | --- | --- | --- |
| N[C@@H](CC(=O)O)C(=O)O [L-aspartatic acid] | X | X | X | 2.4 ± 0.08 | 87 ± 6.1 | 73 ± 3.7 | 93 ± 3.6 | 75 ± 4.6 | 94 ± 4.5 | 90 ± 3.6 | 92 ± 1.4 | 28 ± 0.7 | 24 ± 0.1 | 31 ± 1.5 | 30 ± 1.4 | Uptake of [3H]CQ (% non-expressing oocyte control), cis-inhibition (non-expressing oocytes [3]; non-expressing oocytes, [test solute] = 0.5 mM, total [3H]CQ transport, normalised to the oocyte type control): 101 ± 4.8 % non-expressing oocyte control; Uptake of [3H]CQ (% non-expressing oocyte control), cis-inhibition (non-expressing oocytes [3]; non-expressing oocytes, [test solute] = 1 mM, total [3H]CQ transport, normalised to the oocyte type control): 97 ± 6.3 % non-expressing oocyte control; Uptake of [3H]CQ (% non-expressing oocyte control), cis-inhibition (non-expressing oocytes [3]; non-expressing oocytes, [test solute] = 2 mM, total [3H]CQ transport, normalised to the oocyte type control): 100 ± 4.6 % non-expressing oocyte control; Uptake of [3H]CQ (% PfCRTDd2 control), cis-inhibition, non-expressing oocytes (non-expressing oocytes [3]; [6]): 3.9 ± 0.03 % PfCRTDd2 control; Uptake of [3H]CQ (% PfCRTDd2 control), cis-inhibition, non-expressing oocytes (non-expressing oocytes [3]; [7]): 3.2 ± 0.08 % PfCRTDd2 control; Uptake of [3H]CQ (% PfCRTDd2 control), cis-inhibition, non-expressing oocytes (non-expressing oocytes [3]; [8]): 3.4 ± 0.1 % PfCRTDd2 control; Uptake of [3H]CQ (% PfCRT3D7 control), cis-inhibition (PfCRT^3D7; PfCRT3D7 oocytes, [test solute] = 2 mM, total [3H]CQ transport, normalised to the oocyte type control): 100 ± 3.5 % PfCRT3D7 control; Uptake of [3H]CQ (% PfCRTDd2 control), cis-inhibition, PfCRT3D7 (PfCRT^3D7; [6]): 3.1 ± 0.07 % PfCRTDd2 control; Uptake of [3H]CQ (% PfCRTDd2 control), cis-inhibition, PfCRT3D7 (PfCRT^3D7; [7]): 2.6 ± 0.08 % PfCRTDd2 control; Uptake of [3H]CQ (% PfCRTDd2 control), cis-inhibition, PfCRT3D7 (PfCRT^3D7; [8]): 2.2 ± 0.06 % PfCRTDd2 control; PfCRT-mediated [3H]CQ transport, cis-inhibition (% PfCRTDd2 control) (PfCRT^Dd2; [test solute] = 0.5 mM): 90 ± 5.7 % PfCRTDd2 control; Uptake of [3H]CQ (% PfCRTDd2 control), cis-inhibition, PfCRTDd2 (PfCRT^Dd2; [test solute] = 1 mM): 89 ± 5.2 % PfCRTDd2 control; Uptake of [3H]CQ (% PfCRTEcu1110 control), cis-inhibition (PfCRT^Ecu1110; [test solute] = 2 mM): 83 ± 4.3 % PfCRTEcu1110 control; PfCRT-mediated [3H]CQ transport, cis-inhibition (% PfCRTEcu1110 control) (PfCRT^Ecu1110; [test solute] = 1 mM): 88 ± 2.7 % PfCRTEcu1110 control; PfCRT-mediated [3H]CQ transport, cis-inhibition (% PfCRTEcu1110 control) (PfCRT^Ecu1110; [test solute] = 2 mM): 80 ± 1.3 % PfCRTEcu1110 control; Uptake of [3H]CQ (% PfCRTDd2 control), cis-inhibition, PfCRTEcu1110 (PfCRT^Ecu1110; [test solute] = 2 mM): 27 ± 1.0 % PfCRTDd2 control |
| NCC(=O)O [L-glycine] | X | X | X | 2.9 ± 0.03 | 94 ± 3.7 | 93 ± 3.1 | 97 ± 3.3 | 95 ± 3.6 | 95 ± 4.2 | 100 ± 3.2 | 94 ± 5.1 | 28 ± 0.5 | 29 ± 0.4 | 31 ± 1.5 | 33 ± 1.0 | Uptake of [3H]CQ (% PfCRTDd2 control), trans-stimulation, non-expressing oocytes (non-expressing oocytes [5]): 2.8 ± 0.05 % PfCRTDd2 control; Uptake of [3H]CQ (% non-expressing oocyte control), cis-inhibition (non-expressing oocytes [3]): 100 ± 4.6 % non-expressing oocyte control and 98 ± 7.4 % non-expressing oocyte control and 100 ± 3.5 % non-expressing oocyte control; Uptake of [3H]CQ (% PfCRTDd2 control), cis-inhibition, non-expressing oocytes (non-expressing oocytes [3]): 3.1 ± 0.09 % PfCRTDd2 control and 2.2 ± 0.03 % PfCRTDd2 control and 2.7 ± 0.03 % PfCRTDd2 control; Uptake of [3H]CQ (% PfCRT3D7 control), cis-inhibition (PfCRT^3D7): 100 ± 3.6 % PfCRT3D7 control and 100 ± 4.8 % PfCRT3D7 control; Uptake of [3H]CQ (% PfCRTDd2 control), cis-inhibition, PfCRT3D7 (PfCRT^3D7): 3.6 ± 0.07 % PfCRTDd2 control and 2.1 ± 0.01 % PfCRTDd2 control and 2.9 ± 0.04 % PfCRTDd2 control; [3H]CQ transport (% PfCRTEcu1110 control), cis-inhibition, PfCRTEcu1110 (PfCRT^Ecu1110; [test solute] = 1 mM): 30 ± 0.5 % PfCRTEcu1110 control |
